Tested on: D-Trp34-NPY stimulated food intake
Test: Screening for Y5 antagonist activity in vivo: D-Trp34-NPY stimulated food intake in rats
Parameters: species or system Long-Evans or Sprague-Dawley rats
Details: rat, oral doses 0.1, 0.3, 1 and 3 mg/kg one hour before icv D-Trp34-NPY; food consumption monitored at 60, 120 and 240 min
Procedure: Method for Screening Compound 14 of Example 14 for Y5 Antagonist Activity In Vivo
Adult male Long-Evans or Sprague-Dawley rats (200-250 g, Charles River, Mass.) were maintained in individual cages at 22° C. on a 12 hr light/12 hr dark cycle with lights on at 0400. Rats had free access to food (Teklad Lab Rodent Chow, Bartonville, Ill.) and water. All studies were conducted in an AAALAC accredited facility following protocols approved by the Animal Care and Use Committee of the Schering-Plough Research Institute. The procedures were performed in accordance with the principles and guidelines established by the NIH for the care and use of laboratory animals.
Rats were anesthetized by intramuscular injection of a mixture of ketamine and xylazine (100 and 10 mg/kg, respectively). A 22 gauge stainless steel cannula was stereotaxically implanted into the lateral ventricle using the following coordinates: 1 mm posterior to bregma, 1.5 mm lateral to midline, 3.6 mm ventral to dura. After a three week recovery period, all animals were tested for correct cannula placement by intracerebroventricular (icv) infusion of human NPY ([…]). […] Food consumption was monitored at 60, 120 and 240 min after icv infusion of peptides. Differences in food intake between groups were determined by analysis of variance followed by Dunnett's multiple comparison test.

Q: With `CN(C(=O)Nc1ccc(-c2cc(F)cc(F)c2)cc1)C1CCN(c2nccs2)CC1` [Example 14] as the compound, how does the “ID50, inhibition of D-Trp34-NPY stimulated food intake” value read?
A: Its value is 0.5 mg/kg.

From patent US6894063B2, “Substituted urea neuropeptide Y Y5 Receptor antagonists” (Schering Corporation, priority 2000, dated 2005)
